Reference: patent publication US9877956B2, “Antiviral compounds and methods of use thereof” (Trana Discovery, Inc., priority 2014, dated 2018)
Values after ≈ are worked out from the molar mass of the structure shown. Values joined by “and” are separate entries in the source; they are usually repeats but may differ in a detail not shown here. Equal values may be shown once.

Key:
Assay type in all cases: cell-based
[1] = tested on: HUMAN PBMCS; experiment: Cytotoxicity in human PBMCs (XTT); settings: for TOXICITY VALUES (XTT - O.D. @ 450/650 nm), SAMPLE: individual samples, listed as Trana 154
Experimental: (§1) In these studies, PHA-P stimulated PBMCs from three donors were pooled together and re-suspended in fresh tissue culture medium at 1×10^6 cells/mL and plated in the interior wells of a 96 well round bottom microplate at 50µl/well. A 100µL volume of 9 concentrations of compound serially diluted were transferred to the round-bottom 96 well plate containing the cells in triplicate. Fifty microliters (µL) of HIV-1 at a pre-determined dilution was added. Each plate contained cell control wells and virus control wells in parallel with the experimental wells. After 7 days in culture, efficacy was evaluated by measuring the reverse transcriptase in the culture supernatants and the cells were stained with the tetrazolium dye XTT to evaluate cytotoxicity.

[2] = Toxicity in PBMC (Cell Titer 96); settings: human, peripheral blood mononuclear cells (PBMC); PBMC, Cell Titer 96
Excerpt: (§2) These compounds were further screened for activity in HIV-1-infected peripheral blood mononuclear cells (PBMC). The data (experiments were repeated, so duplicates are shown) is summarized in the tables below, and also in FIGS. 4A-B and 5A-B.

[3] = tested on: PBMC; experiment: Toxicity in PBMC (Cell Titer 96); settings: for % CC: O.D. relative to cell control; for TOXICITY VALUES (Cell Titer 96 - O.D. @ 490/650 nm), SAMPLE: individual samples
Excerpt: as §2

[4] = tested on: HIV-1/Ba-L; experiment: Inhibition of HIV-1 Ba-L replication in PBMC (RT values); settings: for % VC: RT relative to virus control; for RT Values (cpm), SAMPLE: individual samples
Experimental: as §2
The HIV strain was HIV-1/Ba-L. The titer was 0.1 μL/well.

[5] = tested on: HIV-1 92/HT/599; experiment: HIV-1 92/HT/599 replication in human PBMCs, reverse transcriptase in culture supernatants (RLU); settings: for RLU (Relative Light Units), SAMPLE: individual samples, listed as Trana 154
Experimental: as §1

## c1ccc(N/N=C2/CCc3ccccc3N2)cc1 [HIT #154]
[1]; 0.32 μg/ml
  % Cell Viability: 92.64%
  Cytotoxicity Test Values Mean OD @ 450/650 nm: 1.038 OD
  TOXICITY VALUES (XTT - O.D. @ 450/650 nm), SAMPLE: 0.9729 O.D. and 1.0510 O.D. and 1.0896 O.D.
[1]; 1 μg/ml
  % Cell Viability: 87.74%
  Cytotoxicity Test Values Mean OD @ 450/650 nm: 0.983 OD
  TOXICITY VALUES (XTT - O.D. @ 450/650 nm), SAMPLE: 0.9683 O.D. and 1.0187 O.D. and 0.9670 O.D.
[1]; 3.16 μg/ml
  % Cell Viability: 88.82%
  Cytotoxicity Test Values Mean OD @ 450/650 nm: 0.995 OD
  TOXICITY VALUES (XTT - O.D. @ 450/650 nm), SAMPLE: 0.9103 O.D. and 1.0889 O.D. and 0.9881 O.D.
[1]; 9.99 μg/ml
  % Cell Viability: 99.35%
  Cytotoxicity Test Values Mean OD @ 450/650 nm: 1.113 OD
  TOXICITY VALUES (XTT - O.D. @ 450/650 nm), SAMPLE: 1.1959 O.D. and 0.9242 O.D. and 1.2189 O.D.
[1]; 31.6 μg/ml
  % Cell Viability: 64.38%
  Cytotoxicity Test Values Mean OD @ 450/650 nm: 0.721 OD
  TOXICITY VALUES (XTT - O.D. @ 450/650 nm), SAMPLE: 0.6103 O.D. and 0.6005 O.D. and 0.7620 O.D.
[1]; 100 μg/ml
  % Cell Viability: 46.94%
  Cytotoxicity Test Values Mean OD @ 450/650 nm: 0.526 OD
  TOXICITY VALUES (XTT - O.D. @ 450/650 nm), SAMPLE: 0.4574 O.D. and 0.5742 O.D. and 0.5461 O.D.
[1]; human PBMCs, XTT
  TC 25%: 22.3 µg/mL (≈ 94 µM)
  TC50 (TC 50%): 81.7 µg/mL (≈ 344 µM)
  TC 95%: >100 µg/mL
[2]
  CC50: > 100 µM
[3]; 0.01 μM
  TOXICITY VALUES (Cell Titer 96 - O.D. @ 490/650 nm), MEAN: 0.990 O.D.
  % CC: 119.6%
  TOXICITY VALUES (Cell Titer 96 - O.D. @ 490/650 nm), SAMPLE: 1.163 O.D. and 1.007 O.D. and 0.800 O.D.
[3]; 0.03 μM
  TOXICITY VALUES (Cell Titer 96 - O.D. @ 490/650 nm), MEAN: 0.810 O.D.
  % CC: 97.9%
  TOXICITY VALUES (Cell Titer 96 - O.D. @ 490/650 nm), SAMPLE: 0.746 O.D. and 0.831 O.D. and 0.853 O.D.
[3]; 0.10 μM
  TOXICITY VALUES (Cell Titer 96 - O.D. @ 490/650 nm), MEAN: 0.966 O.D.
  % CC: 116.8%
  TOXICITY VALUES (Cell Titer 96 - O.D. @ 490/650 nm), SAMPLE: 1.086 O.D. and 0.970 O.D. and 0.843 O.D.
[3]; 0.32 μM
  TOXICITY VALUES (Cell Titer 96 - O.D. @ 490/650 nm), MEAN: 0.937 O.D.
  % CC: 113.3%
  TOXICITY VALUES (Cell Titer 96 - O.D. @ 490/650 nm), SAMPLE: 0.736 O.D. and 1.231 O.D. and 0.845 O.D.
[3]; 1.00 μM
  TOXICITY VALUES (Cell Titer 96 - O.D. @ 490/650 nm), MEAN: 1.077 O.D.
  % CC: 130.2%
  TOXICITY VALUES (Cell Titer 96 - O.D. @ 490/650 nm), SAMPLE: 1.296 O.D. and 1.045 O.D. and 0.892 O.D.
[3]; 3.16 μM
  TOXICITY VALUES (Cell Titer 96 - O.D. @ 490/650 nm), MEAN: 0.964 O.D.
  % CC: 116.5%
  TOXICITY VALUES (Cell Titer 96 - O.D. @ 490/650 nm), SAMPLE: 1.146 O.D. and 0.903 O.D. and 0.843 O.D.
[3]; 10.0 μM
  TOXICITY VALUES (Cell Titer 96 - O.D. @ 490/650 nm), MEAN: 0.937 O.D.
  % CC: 113.2%
  TOXICITY VALUES (Cell Titer 96 - O.D. @ 490/650 nm), SAMPLE: 0.712 O.D. and 1.254 O.D. and 0.846 O.D.
[3]; 31.6 μM
  TOXICITY VALUES (Cell Titer 96 - O.D. @ 490/650 nm), MEAN: 0.962 O.D.
  % CC: 116.3%
  TOXICITY VALUES (Cell Titer 96 - O.D. @ 490/650 nm), SAMPLE: 0.898 O.D. and 1.018 O.D. and 0.970 O.D.
[3]; 100 μM
  TOXICITY VALUES (Cell Titer 96 - O.D. @ 490/650 nm), MEAN: 0.769 O.D.
  % CC: 92.9%
  TOXICITY VALUES (Cell Titer 96 - O.D. @ 490/650 nm), SAMPLE: 0.757 O.D. and 0.854 O.D. and 0.697 O.D.
[3]; PBMC, Cell Titer 96
  TC 90%: >100 µM
  TC 95%: >100 µM
[4]; 0.01 μM
  RT Values (cpm), MEAN: 29112.2 cpm
  % VC: 98.8%
  RT Values (cpm), SAMPLE: 31907 cpm and 25645 cpm and 29785 cpm
[4]; 0.03 μM
  RT Values (cpm), MEAN: 29394.5 cpm
  % VC: 99.8%
  RT Values (cpm), SAMPLE: 28419 cpm and 27673 cpm and 32092 cpm
[4]; 0.10 μM
  RT Values (cpm), MEAN: 28793.5 cpm
  % VC: 97.8%
  RT Values (cpm), SAMPLE: 24503 cpm and 28356 cpm and 33522 cpm
[4]; 0.32 μM
  RT Values (cpm), MEAN: 28067.5 cpm
  % VC: 95.3%
  RT Values (cpm), SAMPLE: 30361 cpm and 24204 cpm and 29638 cpm
[4]; 1.00 μM
  RT Values (cpm), MEAN: 19065.5 cpm
  % VC: 64.7%
  RT Values (cpm), SAMPLE: 18120 cpm and 21373 cpm and 17704 cpm
[4]; 3.16 μM
  RT Values (cpm), MEAN: 15141.8 cpm
  % VC: 51.4%
  RT Values (cpm), SAMPLE: 12447 cpm and 16921 cpm and 16058 cpm
[4]; 10.0 μM
  RT Values (cpm), MEAN: 12407.5 cpm
  % VC: 42.1%
  RT Values (cpm), SAMPLE: 13978 cpm and 10363 cpm and 12882 cpm
[4]; 31.6 μM
  RT Values (cpm), MEAN: 9086.8 cpm
  % VC: 30.9%
  RT Values (cpm), SAMPLE: 10815 cpm and 7472 cpm and 8974 cpm
[4]; 100 μM
  RT Values (cpm), MEAN: 2467.8 cpm
  % VC: 8.4%
  RT Values (cpm), SAMPLE: 3062 cpm and 2720 cpm and 1622 cpm
[4]; HIV-1 Ba-L in PBMC
  IC 95%: 65.1 µM and >100 µM
[4]; TC/IC at 95%
  ANTIVIRAL INDEX (AI) 95%: >1.54
[5]; 0.32 μg/ml
  % Virus Control: 84.00%
  Antiviral Test Values Mean RLU: 16201.3 RLU
  RLU (Relative Light Units), SAMPLE: 27495.0 RLU and 14218.0 RLU and 6891.0 RLU
[5]; 1 μg/ml
  % Virus Control: 78.40%
  Antiviral Test Values Mean RLU: 15121.3 RLU
  RLU (Relative Light Units), SAMPLE: 10410.0 RLU and 21914.0 RLU and 13031.0 RLU
[5]; 3.16 μg/ml
  % Virus Control: 41.46%
  Antiviral Test Values Mean RLU: 7996.7 RLU
  RLU (Relative Light Units), SAMPLE: 11407.0 RLU and 10934.0 RLU and 1649.0 RLU
[5]; 9.99 μg/ml
  % Virus Control: 48.92%
  Antiviral Test Values Mean RLU: 9436.3 RLU
  RLU (Relative Light Units), SAMPLE: 13230.0 RLU and 13148.0 RLU and 1933.0 RLU
[5]; 31.6 μg/ml
  % Virus Control: 35.47%
  Antiviral Test Values Mean RLU: 6841.0 RLU
  RLU (Relative Light Units), SAMPLE: 5800.0 RLU and 7652.0 RLU and 7462.0 RLU
[5]; 100 μg/ml
  % Virus Control: 6.75%
  Antiviral Test Values Mean RLU: 1301.3 RLU
  RLU (Relative Light Units), SAMPLE: 1021.0 RLU and 744.0 RLU and 2139.0 RLU
[5]; HIV-1 92/HT/599, human PBMCs
  EC 25%: 1.11 µg/mL (≈ 4.68 µM)
  EC 95%: >100 µg/mL
[5]; Human immunodeficiency virus 1, PBMC, read-out: EC50 (EC 50%), HIV-1 92/HT/599, human PBMCs
  EC50: 2.42 µg/mL (≈ 10.2 µM)
[5]; TC/EC at 25%
  Therapeutic Index (TI) 25%: 20.09
[5]; TC/EC at 50%
  Therapeutic Index (TI) 50%: 33.76
[5]; TC/EC at 95%
  Therapeutic Index (TI) 95%: 1
